Source: BindingDB's records for doi:10.1016/s0960-894x(00)00312-7 (Signal Pharmaceuticals, 2000)

Biological target: Protein c-Fos/Transcription factor Jun (Homo sapiens, UniProt P05412+P01100)
Test: Inhibition of AP-1 (activator protein-1) mediated transcriptional activation in Jurkat T-cells

Protein c-Fos/Transcription factor Jun, sequence (P05412 whole entry): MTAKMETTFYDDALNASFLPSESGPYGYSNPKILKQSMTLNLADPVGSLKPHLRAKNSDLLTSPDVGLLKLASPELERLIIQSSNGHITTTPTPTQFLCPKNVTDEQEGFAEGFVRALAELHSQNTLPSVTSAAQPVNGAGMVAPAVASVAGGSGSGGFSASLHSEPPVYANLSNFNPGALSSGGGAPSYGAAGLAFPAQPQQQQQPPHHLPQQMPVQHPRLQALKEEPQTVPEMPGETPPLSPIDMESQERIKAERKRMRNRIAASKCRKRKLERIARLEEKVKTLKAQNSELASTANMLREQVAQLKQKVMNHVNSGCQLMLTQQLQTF
Protein c-Fos/Transcription factor Jun, sequence (P01100 whole entry): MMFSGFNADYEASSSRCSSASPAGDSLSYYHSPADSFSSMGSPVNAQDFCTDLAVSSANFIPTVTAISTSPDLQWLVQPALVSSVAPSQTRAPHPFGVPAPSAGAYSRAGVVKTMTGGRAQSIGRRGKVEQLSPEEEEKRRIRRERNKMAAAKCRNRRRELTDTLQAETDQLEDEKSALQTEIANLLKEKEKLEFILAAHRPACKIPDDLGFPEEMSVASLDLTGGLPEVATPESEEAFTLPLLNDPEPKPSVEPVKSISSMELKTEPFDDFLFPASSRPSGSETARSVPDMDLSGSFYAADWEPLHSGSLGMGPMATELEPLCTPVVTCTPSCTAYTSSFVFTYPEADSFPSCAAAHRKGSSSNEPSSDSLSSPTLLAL

SMILES	IC50
CCOC(=O)c1cnc(-c2cccs2)nc1NN1C(=O)C=C(C)C1=O [ethyl 4-(3-methyl-2,5-dioxo-2H-pyrrol-1(5H)-ylamino)-2-(thiophen-2-yl)pyrimidine-5-carboxylate]	20 nM
CCOC(=O)c1cnc(-c2ccsc2)nc1NN1C(=O)C=C(C)C1=O [ethyl 4-(3-methyl-2,5-dioxo-2H-pyrrol-1(5H)-ylamino)-2-(thiophen-3-yl)pyrimidine-5-carboxylate]	100 nM
CCOC(=O)c1cnc(Oc2ccccc2)nc1NN1C(=O)C=C(C)C1=O [ethyl 4-(3-methyl-2,5-dioxo-2H-pyrrol-1(5H)-ylamino)-2-phenoxypyrimidine-5-carboxylate]	15000 nM
CCOC(=O)c1cnc(-c2cccs2)nc1N(C)N1C(=O)C=C(C)C1=O [ethyl 4-(methyl(3-methyl-2,5-dioxo-2H-pyrrol-1(5H)-yl)amino)-2-(thiophen-2-yl)pyrimidine-5-carboxylate]	1000 nM
CCOC(=O)c1cnc(-c2ccccc2)nc1N(C)N1C(=O)C=C(C)C1=O [ethyl 4-(methyl(3-methyl-2,5-dioxo-2H-pyrrol-1(5H)-yl)amino)-2-phenylpyrimidine-5-carboxylate]	2000 nM
